Reference: patent publication US20260125382A1, “COMPOUNDS FOR INHIBITING OR DEGRADING CDK2 AND/OR CDK9 AND MEDICINAL USE THEREOF” (KOREA RESEARCH INSTITUTE OF CHEMICAL TECHNOLOGY, priority 2022, published 2026)

Columns and labels:
CDK9 = target: T1, CDK9 (Homo sapiens, UniProt P50750); assay: CDK protein degradation activity (Western blotting), CDK9; type: cell-based; conditions: MDA-MB-231 cells, 16 hours, Western blot
T1 construct: endogenous in cells; host or cells: MDA-MB-231
How it was run: (§1)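 MDA-MB-231; cmpd 100 nM / 1 μM / 10 μM final vs DMSO, 16 h. Triton X-100 lysates (pH 7.5, phosphatase/protease inhibitors) → SDS-PAGE → Western blot, anti-CDK2, anti-CDK9, tubulin loading control; densitometry.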

CDK2 = target: T2, CDK2 (Homo sapiens, UniProt P24941); assay: CDK protein degradation activity (Western blotting), CDK2; type: cell-based; conditions: MDA-MB-231 cells, 16 hours, Western blot
T2 construct: endogenous in cells; host or cells: MDA-MB-231
How it was run: as §1

T1 sequence (P50750 whole entry): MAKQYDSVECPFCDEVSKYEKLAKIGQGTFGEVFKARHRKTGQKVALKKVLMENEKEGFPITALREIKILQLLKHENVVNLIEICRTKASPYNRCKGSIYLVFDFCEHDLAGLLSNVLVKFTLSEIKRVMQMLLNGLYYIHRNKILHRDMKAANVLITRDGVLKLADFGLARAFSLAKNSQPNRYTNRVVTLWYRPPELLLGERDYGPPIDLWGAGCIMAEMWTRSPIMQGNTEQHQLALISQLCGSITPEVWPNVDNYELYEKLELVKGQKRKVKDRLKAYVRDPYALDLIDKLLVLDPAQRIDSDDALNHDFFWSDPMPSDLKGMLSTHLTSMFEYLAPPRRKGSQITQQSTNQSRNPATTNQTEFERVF

Compound | Enzyme degradation CDK9 (% remaining) @ 0.1 μM (CDK9) | Enzyme degradation CDK9 (% remaining) @ 1 μM (CDK9) | Enzyme degradation CDK9 (% remaining) @ 10 μM (CDK9) | Enzyme degradation CDK2 (% remaining) @ 0.1 μM (CDK2) | Enzyme degradation CDK2 (% remaining) @ 1 μM (CDK2) | Enzyme degradation CDK2 (% remaining) @ 10 μM (CDK2)
O=C1CC[C@H](N2C(=O)c3cc(F)c(N4CCC(CCN5CCN(c6ccc(Nc7ncnc8c7ncn8C7CC(NC(=O)Cc8ccccc8)C7)cc6)CC5)CC4)cc3C2=O)C(=O)N1 (some centres unmarked) [Compound 323, N-((1s,3s)-3-(6-((4-(4-(2-(1-(2-(2,6-dioxopiperidin-3-yl)-6-fluoro-1,3-dioxoisoindolin-5-yl)piperidin-4-yl)ethyl)piperazin-1-yl)phenyl)amino)-9H-purin-9-yl)cyclobutyl)-2-phenylacetamide] | 0/0/0% | 0/0/0% | 0/0/0% | 60% | 50% | 40%
Cc1cccc(C(=O)N[C@H]2C[C@@H](n3cnc4c(NCc5ccc(OCC6CCN(C(=O)COc7ccc8c(c7)C(=O)N([C@H]7CCC(=O)NC7=O)C8=O)CC6)cc5)ncnc43)C2)n1 [Compound 106, N-((1s,3s)-3-(6-((4-((1-(2-((2-(2,6-dioxopiperidin-3-yl)-1,3-dioxoisoindolin-5-yl)oxy)acetyl)piperidin-4-yl)methoxy)benzyl)amino)-9H-purin-9-yl)cyclobutyl)-6-methylpicolinamide] | 70% | 0% | 0% | 70% | 50% | 50%
O=C1CCC(N2C(=O)c3ccc(N4CCC(C(=O)N5CCC(CN6CCN(c7ccc(Nc8ncnc9c8ncn9[C@H]8C[C@@H](NC(=O)c9cccc(Cl)n9)C8)cc7)CC6)CC5)CC4)cc3C2=O)C(=O)N1 (some centres unmarked) [Compound 452, 6-chloro-N-((1s,3s)-3-(6-((4-(4-((1-(1-(2-(2,6-dioxopiperidin-3-yl)-1,3-dioxoisoindolin-5-yl)piperidin-4-carbonyl)piperidin-4-yl)methyl)piperazin-1-yl)phenyl)amino)-9H-purin-9-yl)cyclobutyl)picolinamide] | 0/0/0% | 0/0/0% | 0/0/0% | 30/30/30% | 30/30/30% | 30/30/30%
O=C1CC[C@H](N2C(=O)c3cc(F)c(N4CCC(C(=O)N5CCC(CN6CCN(c7ccc(Nc8ncnc9c8ncn9[C@H]8C[C@@H](NC(=O)c9cccc(C(F)(F)F)n9)C8)cc7)CC6)CC5)CC4)cc3C2=O)C(=O)N1 [Compound 471, N-((1s,3s)-3-(6-((4-(4-((1-(1-(2-(2,6-dioxopiperidin-3-yl)-6-fluoro-1,3-dioxoisoindolin-5-yl)piperidin-4-carbonyl)piperidin-4-yl)methyl)piperazin-1-yl)phenyl)amino)-9H-purin-9-yl)cyclobutyl)-6-(trifluoromethyl)picolinamide] | 0/0/0% | 0/0/0% | 0/0/0% | 50% | 40% | 40%
O=C1CC[C@H](n2nnc3ccc(N4CCN(C5CCN(c6ccc(Nc7ncnc8c7ncn8C7CC(NC(=O)Cc8ccccc8)C7)cc6)CC5)CC4)cc3c2=O)C(=O)N1 (some centres unmarked) [Compound 357, N-((1s,3s)-3-(6-((4-(4-(4-(3-(2,6-dioxopiperidin-3-yl)-4-oxo-3,4-dihydrobenzo[d][1,2,3]triazin-6-yl)piperazin-1-yl)piperidin-1-yl)phenyl)amino)-9H-purin-9-yl)cyclobutyl)-2-phenylacetamide] | 80% | 30% | 30% | 70% | 20% | 20%
O=C1CCC(N2C(=O)c3ccc(N4CCC(OCCN5CCN(c6ccc(Nc7ncnc8c7ncn8[C@H]7C[C@@H](NC(=O)Cc8ccccc8)C7)cc6)CC5)CC4)cc3C2=O)C(=O)N1 (some centres unmarked) [Compound 252, N-((1s,3s)-3-(6-((4-(4-(2-((1-(2-(2,6-dioxopiperidin-3-yl)-1,3-dioxoisoindolin-5-yl)piperidin-4-yl)oxy)ethyl)piperazin-1-yl)phenyl)amino)-9H-purin-9-yl)cyclobutyl)-2-phenylacetamide] | 60/60/60% | 60/60/60% | 60/60/60% | 30% | 30% | 50%
Cc1cccc(C(=O)N[C@H]2C[C@@H](n3cnc4c(Nc5ccc(N6CCN(CC7CCN(C(=O)C8CCN(c9cc%10c(cc9F)C(=O)N([C@H]9CCC(=O)NC9=O)C%10=O)CC8)CC7)CC6)cc5)ncnc43)C2)n1 [Compound 476, N-((1s,3s)-3-(6-((4-(4-((1-(1-(2-(2,6-dioxopiperidin-3-yl)-6-fluoro-1,3-dioxoisoindolin-5-yl)piperidin-4-carbonyl)piperidin-4-yl)methyl)piperazin-1-yl)phenyl)amino)-9H-purin-9-yl)cyclobutyl)-6-methylpicolinamide] | 50% | 10% | 10% | 70% |  | 60%
Cc1cccc(C(=O)N[C@H]2C[C@@H](n3cnc4c(NCc5ccc(OCCCN6CCN(C(=O)CNc7cccc8c7C(=O)N([C@H]7CCC(=O)NC7=O)C8=O)CC6)cc5)ncnc43)C2)n1 [Compound 115, N-((1s,3s)-3-(6-((4-(3-(4-((2-(2,6-dioxopiperidin-3-yl)-1,3-dioxoisoindolin-4-yl)glycyl)piperazin-1-yl)propoxy)benzyl)amino)-9H-purin-9-yl)cyclobutyl)-6-methylpicolinamide] | 0/0/0% | 0/0/0% | 0/0/0% | 30% | 40% | 50%
O=C1CC[C@H](N2C(=O)c3cc(F)c(N4CCC(CN5CCN(c6ccc(Nc7ncnc8c7ncn8C7CC(NC(=O)c8c(Cl)cccc8Cl)C7)cc6)CC5)CC4)cc3C2=O)C(=O)N1 (some centres unmarked) [Compound 299, 2,6-dichloro-N-((1s,3s)-3-(6-((4-(4-((1-(2-(2,6-dioxopiperidin-3-yl)-6-fluoro-1,3-dioxoisoindolin-5-yl)piperidin-4-yl)methyl)piperazin-1-yl)phenyl)amino)-9H-purin-9-yl)cyclobutyl)benzamide] | 0/0/0% | 0/0/0% | 0/0/0% | 30/30/30% | 30/30/30% | 30/30/30%
O=C1CCN(c2coc3cc(C(=O)N4CCC5(CC4)CC(N4CCN(c6ccc(Nc7ncnc8c7ncn8[C@H]7C[C@@H](NC(=O)Cc8ccccc8)C7)cc6)CC4)C5)ccc23)C(=O)N1 [Compound 191, N-((1s,3s)-3-(6-((4-(4-(7-(3-(2,4-dioxotetrahydropyrimidin-1(2H)-yl)benzofuran-6-carbonyl)-7-azaspiro[3.5]nonan-2-yl)piperazin-1-yl)phenyl)amino)-9H-purin-9-yl)cyclobutyl)-2-phenylacetamide] | 0/0/0% | 0/0/0% | 0/0/0% | 0/0/0% | 0/0/0% | 0/0/0%
Cc1cccc(C(=O)N[C@H]2C[C@@H](n3cnc4c(Nc5ccc(N6CCN(CCC7CCN(c8ccc9nnn([C@H]%10CCC(=O)NC%10=O)c(=O)c9c8)CC7)CC6)cc5)ncnc43)C2)n1 [Compound 382, N-((1s,3s)-3-(6-((4-(4-(2-(1-(3-(2,6-dioxopiperidin-3-yl)-4-oxo-3,4-dihydrobenzo[d][1,2,3]triazin-6-yl)piperidin-4-yl)ethyl)piperazin-1-yl)phenyl)amino)-9H-purin-9-yl)cyclobutyl)-6-methylpicolinamide] | 0/0/0% | 0/0/0% | 0/0/0% | 30% | 30% | 50%
